Columns and labels:
[1] = biological target: nicotinic α4β2 receptor (Homo sapiens, UniProt P43681); conditions: ref Paradiso et al., 2001; cited from earlier work
[2] = biological target: β/αWLAAC&β2 (Homo sapiens, UniProt P17787+P43681); format: cell-based; conditions: β/αWLAAC concatemer with free β2; 10 μM; Figure 6
[3] = biological target: αWLAAC with α/β (Homo sapiens, UniProt P43681); format: cell-based; conditions: 10 μM, Figure 6
[4] = test system: nicotinic α4β2 receptor, pooled combinations of constructs; experiment: Steroid potentiation, values pooled over combinations of constructs; format: cell-based, human; conditions: for mean potentiation, single copy of WLAGMI: 10 μM 17β-estradiol
[5] = test system: α/β&α-M3-β; format: cell-based, human; conditions: α-M3-β chimera with the α/β concatemer; 10 μM; Figure 6
[6] = biological target: α/β&β-M3-α (Homo sapiens, UniProt P17787+P43681, A332P/K336R/P333T/T327R/V337R); format: cell-based; conditions: β-M3-α chimera (α4 sequence transferred to β2); 10 μM; Figure 6
[7] = biological target: β/α & α4 (Homo sapiens, UniProt P17787+P43681); experiment: Agonist activation, two-electrode voltage clamp of Xenopus oocytes; format: cell-based; conditions: response to 1 μM 5I A85380 normalized to the response to 1 mM ACh
[8] = biological target: β/α & β2 (Homo sapiens, UniProt P17787+P43681); experiment: as above; format: cell-based
[9] = biological target: nicotinic α4β2 receptor, α4 & β2 8:1 (Homo sapiens, UniProt P17787+P43681); experiment: as above; format: cell-based; conditions: response to 1 μM 5I A85380 normalized to the response to 1 mM ACh
[10] = test system: (α4)2(β3)3; conditions: (α4)2(β3)3 receptor; ref Zwart et al., 2006; cited from earlier work
[11] = biological target: α/β & β2 (Homo sapiens, UniProt P17787+P43681); experiment: Agonist activation, two-electrode voltage clamp of Xenopus oocytes; format: cell-based
[12] = biological target: α/β & α4 (Homo sapiens, UniProt P17787+P43681); experiment: as above; format: cell-based; conditions: response to 1 μM 5I A85380 normalized to the response to 1 mM ACh
[13] = biological target: α/β concatemer expressed alone (Homo sapiens, UniProt P17787+P43681); experiment: as above; format: cell-based; conditions: response to 1 μM 5I A85380 normalized to the response to 1 mM ACh
[14] = biological target: nicotinic α4β2 receptor, α4 & β2 1:8 (Homo sapiens, UniProt P17787+P43681); experiment: as above; format: cell-based; conditions: response to 1 μM 5I A85380 normalized to the response to 1 mM ACh
[15] = biological target: α/β&β2F119Q (Homo sapiens, UniProt P17787+P43681, F144Q); experiment: as above; format: cell-based
[16] = biological target: β/α&β2F119Q (Homo sapiens, UniProt P17787+P43681, F144Q); experiment: as above; format: cell-based
[17] = biological target: β/α concatemer expressed alone (Homo sapiens, UniProt P17787+P43681); experiment: as above; format: cell-based; conditions: response to 1 μM 5I A85380 normalized to the response to 1 mM ACh

Compound: CC12CCC3c4ccc(O)cc4CCC3C1CCC2O (single isomer, unassigned) [enantiomer of 17β-estradiol]
- potentiation of the α4β2 receptor (in words) [1]: does not potentiate

Compound: C[C@]12CC[C@@H]3c4ccc(O)cc4CC[C@H]3[C@@H]1CC[C@@H]2O [17β-estradiol]
- potentiation by 17β-estradiol (in words) [2]: but not when it is expressed with free β2
- potentiation by 17β-estradiol (in words) [3]: removes potentiation
- average potentiation by 10 μM 17β-estradiol ([4]; 0 WLAGMI domains, 10 combinations tested): 0.97 ± 0.02
- average potentiation by 10 μM 17β-estradiol ([4]; 1 WLAGMI domain, 10 combinations): 2.2 ± 0.2
- average potentiation by 10 μM 17β-estradiol ([4]; 2 WLAGMI domains, 5 combinations): 2.4 ± 0.4
- average potentiation by 10 μM 17β-estradiol ([4]; 3 WLAGMI domains, 4 combinations): 3.3 ± 0.2
- average potentiation by 10 μM 17β-estradiol ([4]; 5 WLAGMI domains, 3 combinations): 3.7 ± 0.3
- mean potentiation by 17β-estradiol ([4]; 5 cases with no untethered AGMI and 2 or 3 critical tryptophans): 0.94 ± 0.04
- mean potentiation, single copy of WLAGMI ([4]; WLAGMI on α4 N-terminal constructs, N=2 combinations): 1.6 ± 0.1 fold
- mean potentiation, single copy of WLAGMI ([4]; WLAGMI on β2 N-terminal constructs, N=8 combinations): 2.3 ± 0.3 fold
- mean potentiation, single copy of WLAGMI ([4]; domain on the structural subunit, 4 combinations): 2.4 ± 0.5 fold
- potentiation by 17β-estradiol (in words) [5]: removes potentiation
- potentiation by 17β-estradiol (in words) [6]: confers potentiation

Compound: Ic1cncc(OC[C@@H]2CCN2)c1 [5I A85380, 5-iodo-3-(2(S)-azetidinylmethoxy) pyridine]
- 5I A85380 response [7]: 0.17
- EC50 [8]: 0.029 ± 0.012 µM
- 5I A85380 response ([8]; β/α & β2, response to 1 μM 5I A85380 normalized to the response to 1 mM ACh): 1.59
- 5I A85380 maximal response ([8]; β/α concatemer with β2, normalized to the response to 1 mM ACh): 1.44 ± 0.10 fold
- 5I A85380 response [9]: 0.19
- maximal response to 5I A85380 compared with ACh [10]: greater than the maximal response to ACh
- EC50 [11]: 0.008 ± 0.001 µM
- 5I A85380 response ([11]; α/β & β2, response to 1 μM 5I A85380 normalized to the response to 1 mM ACh): 1.84
- 5I A85380 maximal response ([11]; α/β concatemer with wild-type β2, normalized to the response to 1 mM ACh): 1.44 ± 0.07 fold
- 5I A85380 response [12]: 0.14
- 5I A85380 response [13]: 0.16
- 5I A85380 response [14]: 1.44
- EC50 [15]: 0.127 ± 0.014 µM
- 5I A85380 maximal response ([15]; α/β concatemer with β2F119Q, normalized to the response to 1 mM ACh): 1.13 ± 0.11 fold
- EC50 [16]: 0.016 ± 0.001 µM
- 5I A85380 maximal response ([16]; β/α concatemer with β2F119Q, normalized to the response to 1 mM ACh): 1.29 ± 0.04 fold
- 5I A85380 response [17]: 0.44
